Assay results reported in publication PMC8330957 (Nature genetics, 2020).
Entries after “also recorded” stand apart in the source; their conditions may differ.

Assays:
JURKAT cells [1] = test: RNA-seq of JURKAT cells treated with UNC1999; type: cell-based, human; details: three-day treatment with 5 μM UNC1999
JURKAT cells [2] = test: RT-qPCR of H3K27me3-marked genes after UNC1999 treatment, JURKAT; type: cell-based, human; details: 5 μM UNC1999, three days, three independent experiments
CUTLL1 cells = test: RT-qPCR of H3K27me3-marked genes after UNC1999 treatment, CUTLL1; type: cell-based, human; details: 5 μM UNC1999, three days, three independent experiments
[3] = test system: BAHCC1 (chromatin-bound), 293 cells; test: Cell fractionation and immunoblotting of chromatin-bound BAHCC1; type: cell-based; details: immunoblotting after cell fractionation, UNC1999 versus DMSO
[4] = test system: 3×Flag-BAHCC1 at TSS of target genes, JURKAT cells; test: Flag ChIP-qPCR of BAHCC1 binding to target genes; type: cell-based, human; details: UNC1999 versus DMSO, three independent experiments

SMILES: CCCc1cc(C)[nH]c(=O)c1CNC(=O)c1cc(-c2ccc(N3CCN(C(C)C)CC3)nc2)cc2c1cnn2C(C)C [UNC1999]
- overlap of UNC1999-derepressed DEGs with those caused by BAHCC1 loss (JURKAT cells [1]): significant overlapping; also recorded: significantly overlapped
- expression of examined H3K27me3-marked genes (JURKAT cells [2]): re-activation
- expression of examined H3K27me3-marked genes (CUTLL1 cells): re-activation
- overall BAHCC1 binding to chromatin [3]: impaired
- BAHCC1 binding to its target genes [4]: significantly reduced
